Data as given in US4263309A, “Polycyclic triazoles used to inhibit allergic responses” (Beecham Group Limited, priority 1977, dated 1981).

Columns and labels:
[1] = test system: passive cutaneous anaphylaxis (PCA), ovalbumin challenge; experiment: Passive cutaneous anaphylaxis (PCA) in rats; type: in vivo, Male Wistar rats; conditions: S.C., PBS with NaHCO3, rat
Protocol: Serum containing heat labile homocytotropic anitbody was raised in rats to crystallized ovalbumin XOA by the method of Mota (I. Mota, Immunology, 7,681 [1964]) using Bordettela pertussis vaccine as adjuvant.
Passive cutaneous anaphylaxis (PCA) was carried out by a method based on that of Ovary and Bier, (A. Ovary and O. G. Bier, Proc. Soc. Exp. Biol. Med. 81, 584, [1952]) as modified by Goose and Blair. (Immunology 16, 749 (1969).
Male Wistar rats of 250-300 g. were given 0.1 ml. of each of six twofold serial dilutions of pooled antiserum in 0.9% saline injected intradermally into separate sites on their shaved backs. Later (72 hrs.) the animals were challenged by intravenous injection of 0.3 ml. of a 1% solution of ovalbumin in an isotonic solution of saline buffered with 0.05 M, pH 7.2, Sorenson Buffer (PBS), mixed with 0.2 ml. of a 5% solution of Pontamine Sky Blue (6BX C.I. 24410, Raymond A. Lamb, London) in isotonic saline. The rats were killed after 20 min and the diameter of the blue wheals at the antibody injection sites was measured on the outer surface of the skin. The starting dilution of the serum was adjusted so that there was no response, after challenge, at the injection site of the highest dilution and a maximum response at the lowest dilutions. Typically six twofold serial dilutions of the serum from 1/4 to 1/128 were used.
Compounds were tested for their ability to reduce the diameter of the wheals at those intradermal sites which in control animals gave less than maximum response. Each dose of the compound was administered to six rats at a measured time prior to intravenous challenge with ovalbumin. Control groups of six rats were given the same volume of carrier fluid (0.2 ml, 100 g^-1) at the same time prior to challenge.
The results were calculated as follows: % inhibition of PCA=100 (1-a/b) where a=the sum of the diameters of the wheals produced in the test animal at the sites of antibody dilutions as used in control groups and b=the mean sum of the diameters of the wheals produced in the control group of animals at those antibody sites where at least five out of six of the animals gave less than maximum response. A typical variations in the control group of animals was SEM±6%.

[2] = test system: Charles River Sprage Dawley CD strain Male Rats; experiment: Oral LD50 toxicity; type: in vivo; conditions: 95% confidence limits
Description: (§1) Toxicity: Oral LD50 of the compound of example 1(d) in Charles River Sprage Dawley CD strain Male Rats: 980 mgkg^-1. LD50 data confidence limits: 95%, 548-1,413 mgkg^-1.

Oral LD50 toxicity = type: in vivo; conditions: rat, in vivo, Charles River Sprage Dawley CD strain male rats
Description: as §1

Compound: O=C1c2cccc([N+](=O)[O-])c2C(=O)c2[nH]nnc21 [Example 4, 4,9-Dihydro-4,9-dioxo-5-nitro-1H-naphtho-[2,3-d]-triazole]
- % Inhib PCA ([1]; 10 mins, 10 mg/kg): 44%
- % Inhib PCA ([1]; 30 mins, 10 mg/kg): 19%

Compound: COc1ccc2c(c1)C(=O)c1nn[nH]c1C2=O [3(e), 4,9-Dihydro-4,9-dioxo-6-methoxy-1H-naphtho[2,3-d]-triazole]
- % Inhib PCA ([1]; 10 mins, 20 mg/kg): 61%
- % Inhib PCA ([1]; 30 mins, 20 mg/kg): 34%

Compound: O=C1c2ccc(F)cc2C(=O)c2[nH]nnc21 [5(e), 4,9-Dihydro-4,9-dioxo-6-fluoro-1H-naphtho[2,3-d]-triazole]
- % Inhib PCA ([1]; 10 mins, 20 mg/kg): 90%
- % Inhib PCA ([1]; 30 mins, 20 mg/kg): 27%

Compound: Cc1ccc2c(c1)C(=O)c1nn[nH]c1C2=O [2(d), 4,9-Dihydro-4,9-dioxo-6methyl-1H-naphtho[2,3-d]-triazole]
- % Inhib PCA ([1]; 10 mins, 20 mg/kg): 73%
- % Inhib PCA ([1]; 30 mins, 20 mg/kg): 57%

Compound: O=C1c2ccccc2C(=O)c2[nH]nnc21 [Example 8, 4,9-Dihydro-4,9-dioxo-1H-naphtho[2,3-d]-triazole]
- % Inhib PCA ([1]; 5 mins, 1 mg/kg): 39%
- % Inhib PCA ([1]; 5 mins, 2 mg/kg): 82%

Compound: Cc1cc2c(c([N+](=O)[O-])c1C)C(=O)c1nn[nH]c1C2=O [Example 6, 4,9-Dihydro-6,7-dimethyl-4,9-dioxo-5-nitronaphtho[2,3-d]-triazole]
- % Inhib PCA ([1]; 10 mins, 1 mg/kg): 66%
- % Inhib PCA ([1]; 30 mins, 1 mg/kg): 28%

Compound: Cc1cc2c(cc1C)C(=O)c1[nH]nnc1C2=O [1(d), 4,9-dihydro-6,7-dimethyl-4,9-dioxo-1H-naphtho[2,3-d]-triazole]
- % Inhib PCA ([1]; 5 mins, 0.1 mg/kg): 30%
- % Inhib PCA ([1]; 5 mins, 0.2 mg/kg): 54%
- % Inhib PCA ([1]; 5 mins, 0.4 mg/kg): 61%
- % Inhib PCA ([1]; 5 mins, 0.8 mg/kg): 86%
- LD50 data confidence limits: 95% [2]: 548-1,413 mgkg^-1
- LD50 (Oral LD50 toxicity): 980 mg/kg
